Patent US8088806B2 (Achillion Pharmaceuticals, Inc., priority 2005, dated 2012)

The molecules below were run on HCV replicon (assay: Replicon based assay of HCV replication inhibition (NPT ELISA)). Settings: Hepatitis C virus, replicon based assay of HCV replication inhibition; Table II; read-out: Activity.
Assay type: cell-based, Hepatitis C virus
In short: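 Huh-7 cells carrying a bicistronic HCV replicon (neo, EMCV-IRES-driven NS3–NS5B) treated overnight after seeding with usually 6 concentrations, 10 to 0.03 micromolar, for three days at 37° C without G418. Replication read as NPT level by captured ELISA; matched-DMSO wells and interferon alpha as controls.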

CC(C)COc1ccc(Nc2nc(-c3ccc(O)c(C(N)=O)c3)cs2)cc1C(F)(F)F [compound 255, 2-hydroxy-5-(2-(4-isobutoxy-3-(trifluoromethyl)phenyl-amino)thiazol-4-yl)benzamide] and NC(=O)c1cc(-c2csc(Nc3ccc(OCC4CC4)c(C(F)(F)F)c3)n2)ccc1O [compound 256, 5-(2-(4-(cyclopropylmethoxy)-3-(trifluoromethyl)phenyl-amino)thiazol-4-yl)-2-hydroxybenzamide] cannot be ordered by EC50: < 1000 nM for the first, < 1000 nM for the second.

Fc1ccc(-c2csc(Nc3ccc(OC4CCCC4)c(C(F)(F)F)c3)n2)cc1F [compound 257, N-(4-(cyclopentyloxy)-3-(trifluoromethyl)phenyl)-4-(3,4-difluorophenyl)thiazol-2-amine] and CCCCCOc1ccc(Nc2nc(-c3ccc(CO)nc3)cs2)cc1C(F)(F)F [compound 264, (5-(2-(4-(pentyloxy)-3-(trifluoromethyl)phenyl-amino)thiazol-4-yl)pyridin-2-yl)methanol] cannot be ordered by EC50: < 1000 nM for the first, < 1000 nM for the second.

Cc1sc(Nc2ccc(OCC3CC3)c(C(F)(F)F)c2)nc1-c1ccc(CC(=O)O)cc1 [compound 258, 2-(4-(2-(4-(cyclopropylmethoxy)-3-(trifluoromethyl)phenyl-amino)-5-methylthiazol-4-yl)phenyl)acetic acid] and CCCCCOc1ccc(Nc2nc(-c3ccc(C(=O)NC)nc3)cs2)cc1C(F)(F)F [compound 259, N-methyl-5-(2-(4-(pentyloxy)-3-(trifluoromethyl)phenyl-amino)thiazol-4-yl)picolinamide] cannot be ordered by EC50: < 1000 nM for the first, < 1000 nM for the second.

First: CCCCCOc1ccc(Nc2nc(CNCc3cccnc3)cs2)cc1C(F)(F)F [compound 260, N-(4-(pentyloxy)-3-(trifluoromethyl)phenyl)-4-((pyridin-3-ylmethylamino)methyl)thia-zol-2-amine]
Second: CCCCCOc1ccc(Nc2nc(CNc3ccc(Cl)c(Cl)c3)cs2)cc1C(F)(F)F [compound 261]
The EC50 of the first is lower: < 1000 nM for the first, 1000 to 10000 nM for the second.

CCCCCOc1ccc(Nc2nc(-c3csc(N)n3)cs2)cc1C(F)(F)F [compound 262, 4-(2-aminothiazol-4-yl)-N-(4-(pentyloxy)-3-(trifluoromethyl)phenyl)thia-zol-2-amine] and CCCCCOc1ccc(Nc2nc(-c3cn4cccnc4n3)cs2)cc1C(F)(F)F [compound 263, 4-(imidazo[1,2-a]pyrimidin-2-yl)-N-(4-(pentyloxy)-3-(trifluoromethyl)phenyl)thia-zol-2-amine] cannot be ordered by EC50: < 1000 nM for the first, < 1000 nM for the second.

First: CCCCCOc1ccc(Nc2nc(CN3CCN(C(=O)OC(C)(C)C)CC3)cs2)cc1C(F)(F)F [compound 265, tert-butyl 4-((2-(4-(pentyloxy)-3-(trifluoromethyl)phenyl-amino)thiazol-4-yl)methyl)piperazine-1-carboxylate]
Second: CCCCCOc1ccc(Nc2nc(CN3CCN(C(=O)OC(C)(C)C)CC3)cs2)cc1F [compound 279, tert-butyl 4-((2-(3-fluoro-4-(pentyloxy)phenylamino)thia-zol-4-yl)methyl)piperiazine-1-carboxylate]
The EC50 of the first is lower: < 1000 nM for the first, 1000 to 10000 nM for the second. The first is the more potent here.

Compared with CCCCCOc1ccc(Nc2nc(CN3CCC(N(C)C(=O)OC(C)(C)C)C3)cs2)cc1C(F)(F)F (centres unmarked) [compound 266, tert-butyl methyl(1-((2-(4-(pentyloxy)-3-(trifluoromethyl)phenyl-amino)thiazol-4-yl)methyl)pyrrolidin-3-yl)carbamate], CCCCCOc1ccc(Nc2nc(CN3CCC(N(C)C(=O)OC(C)(C)C)C3)cs2)cc1F (centres unmarked) [compound 280, tert-butyl 1-((2-(3-fluoro-4-(pentyloxy)phenylamino)thia-zol-4-yl)m,ethyl)pyrrolidin-3-yl(methyl)carbamate] is higher in EC50: < 1000 nM for the first, 1000 to 10000 nM for the second. The first is the more potent here.

CCCCCOc1ccc(Nc2nc(CN3CCC(C(N)=O)CC3)cs2)cc1C(F)(F)F [compound 267, 1-((2-(4-(pentyloxy)-3-(trifluoromethyl)phenyl-amino)thiazol-4-yl)methyl)piperidine-4-carboxamide] and CCCCCOc1ccc(Nc2nc(CN3CCC(C(=O)O)CC3)cs2)cc1C(F)(F)F [compound 274, 1-((2-(4-(pentyloxy)-3-(trifluoromethyl)phenyl-amino)thiazol-4-yl)methyl)piperidine-4-carboxylic acid] cannot be ordered by EC50: < 1000 nM for the first, < 1000 nM for the second.

CCCCCOc1ccc(Nc2nc(CN3CCC[C@H]3C(=O)O)cs2)cc1C(F)(F)F [compound 268, (S)-1-((2-(4-(pentyloxy)-3-(trifluoromethyl)phenyl-amino)thiazol-4-yl)methyl)pyrrolidine-2-carboxylic acid] and CCCCCOc1ccc(Nc2nc(CN3CCC[C@@H]3C(=O)O)cs2)cc1C(F)(F)F [compound 278, (R)-1-((2-(4-(pentyloxy)-3-(trifluoromethyl)phenyl-amino)thiazol-4-yl)methyl)pyrrolidine-2-carboxylic acid] cannot be ordered by EC50: < 1000 nM for the first, < 1000 nM for the second.

CCCCCOc1ccc(Nc2nc(CN3CCC(O)CC3)cs2)cc1C(F)(F)F [compound 272, 1-((2-(4-(pentyloxy)-3-(trifluoromethyl)phenyl-amino)thiazol-4-yl)methyl)piperidin-4-ol] and CCCCCOc1ccc(Nc2nc(CN3CCC(CO)CC3)cs2)cc1C(F)(F)F [compound 273, (1-((2-(4-(pentyloxy)-3-(trifluoromethyl)phenyl-amino)thiazol-4-yl)methyl)piperidin-4-yl)methanol] cannot be ordered by EC50: < 1000 nM for the first, < 1000 nM for the second.

CCCCCOc1ccc(Nc2nc(CN3CCCC(C(=O)O)C3)cs2)cc1C(F)(F)F (centres unmarked) [compound 275, 1-((2-(4-(pentyloxy)-3-(trifluoromethyl)phenyl-amino)thiazol-4-yl)methyl)piperidin-3-carboxylic acid] and CCCCCOc1ccc(Nc2nc(CN3CCCC(C)C3)cs2)cc1C(F)(F)F (centres unmarked) [compound 276, 4-((3-methylpiperidin-1-yl)methyl)-N-(4-(pentyloxy)-3-(trifluoromethyl)phenyl)thia-zol-2-amine] cannot be ordered by EC50: < 1000 nM for the first, < 1000 nM for the second.

CCCCCOc1ccc(Nc2nc(CN3C(C)CCCC3C)cs2)cc1C(F)(F)F (centres unmarked) [compound 277, 4-((2,6-dimethylpiperidin-1-yl)methyl)-N-(4-(pentyloxy)-3-(trifluoromthyl)phenyl)thia-zol-2-amine] and CCCCCOc1ccc(Nc2nc(CN3CCC(N(C)C)C3)cs2)cc1F (centres unmarked) [compound 287, 4-((3-(dimethylamino)pyrrolidin-1-yl)methyl)-N-(3-fluoro-4-(pentyloxy)pheenyl)thiazol-2-amine] cannot be ordered by EC50: < 1000 nM for the first, < 1000 nM for the second.

Compared with CCCCCOc1ccc(Nc2nc(CN3CCN(Cc4ccccn4)CC3)cs2)cc1F [compound 281, N-(3-fluoro-4-(pentyloxy)phenyl)-4-((4-(pyridin-2-ylmethyl)piperiazin-1-yl)methyl)thiazol-2-amine], CCCCCOc1ccc(Nc2nc(CN3CCN(CCN(C)C)CC3)cs2)cc1F [compound 283, 4-((4-(2-(dimeethylamino)ethyl)piper-azin-1-yl)methyl)-N-(3-fluoro-4-(pentyloxy)phenyl)thiazol-2-amine] is higher in EC50: < 1000 nM for the first, 1000 to 10000 nM for the second. The first is the more potent here.

First: CCCCCOc1ccc(Nc2nc(CN3CCN(C4CCCCCC4)CC3)cs2)cc1F [compound 282, 4-((4-cycloheptylpiperazin-1-yl)methyl)-N-(3-fluoro-4-(pentyloxy)phenyl)thiazol-2-amine]
Second: CCCCCOc1ccc(Nc2nc(CN3CCC(O)CC3)cs2)cc1F [compound 291, 1-((2-(3-fluoro-4-(pentyloxy)phenylamino)thia-zol-4-yl)methyl)piperidin-4-ol]
The EC50 of the first is lower: < 1000 nM for the first, 1000 to 10000 nM for the second.

CCCCCOc1ccc(Nc2nc(CN3CCCC(C(=O)N(CC)CC)C3)cs2)cc1F (centres unmarked) [compound 284, N,N-diethyl-1-((2-(3-fluoro-4-(pentyloxy)phenylamino)thia-zol-4-yl)methyl)piperidine-3-carboxamide] and CCCCCOc1ccc(Nc2nc(CN3CCCC(C(=O)O)C3)cs2)cc1F (centres unmarked) [compound 293, 1-((2-(3-fluoro-4-(pentyloxy)phenylamino)thia-zol-4-yl)methyl)piperidine-3-carboxylic acid] fall in the same range of EC50: 1000 to 10000 nM for the first, 1000 to 10000 nM for the second.

CCCCCOc1ccc(Nc2nc(CN3CCOCC3)cs2)cc1F [compound 285, N-(3-fluoro-4-(pentyloxy)phenyl)-4-(morpholinomethyl)thiazol-2-amine] and CCCCCOc1ccc(Nc2nc(CN3CCC(C)CC3)cs2)cc1F [compound 295, N-(3-fluoro-4-(pentyloxy)pheenyl)-4-((4-methylpiperidin-1-yl)methyl)thiazol-2-amine] fall in the same range of EC50: 1000 to 10000 nM for the first, 1000 to 10000 nM for the second.

CCCCCOc1ccc(Nc2nc(CN3CCCCC3CO)cs2)cc1F (centres unmarked) [compound 286, (1-((2-(3-fluoro-4-(pentyloxy)phenylamino)thia-zol-4-yl)methyl)piperidin-2-yl)methanol] and CCCCCOc1ccc(Nc2nc(CN3CCC[C@@H]3C(=O)O)cs2)cc1F [compound 294, (R)-1-((2-(3-fluoro-4-(pentyloxy)phenylamino)thia-zol-4-yl)methyl)pyrrolidine-2-carboxylic acid] fall in the same range of EC50: 1000 to 10000 nM for the first, 1000 to 10000 nM for the second.

First: CCCCCOc1ccc(Nc2nc(CN3CCC(O)C3)cs2)cc1F (centres unmarked) [compound 288, 1-((2-(3-fluoro-4-(pentyloxy)phenylamino)thia-zzol-4-yl)methyl)pyrrolidin-3-ol]
Second: CCCCCOc1ccc(Nc2nc(CN3CCC(CO)CC3)cs2)cc1F [compound 292, (1-((2-(3-fluoro-4-(pentyloxy)phenylamino)thia-zol-4-yl)methyl)piperidin-4-yl)methanol]
The EC50 of the first is lower: < 1000 nM for the first, 1000 to 10000 nM for the second.

First: CCCCCOc1ccc(Nc2nc(CN3CCC(C(=O)OCC)CC3)cs2)cc1F [compound 289, ethyl 1-((2-(3-fluoro-4-(pentyloxy)phenylamino)thia-zol-4-yl)methyl)piperidine-4-carboxylate]
Second: CCCCCOc1ccc(Nc2nc(CN3C[C@H](O)CC3C(=O)OC)cs2)cc1F (stereo partly drawn) [compound 290, (4R)-methyl 1-((2-(3-fluoro-4-(pentyloxy)phenylamino)thia-zol-4-yl)methyl)-4-hydroxypyrrolidine-2-carboxylate]
The EC50 of the first is higher: 1000 to 10000 nM for the first, < 1000 nM for the second.
